Where no end group is shown, it is not given here. [ ]: non-standard residue; d: D form.

The test system of data set [1] is OVCAR3-Luc cells. The data set can be described thus: Cytocidal activity by ATP amount (CellTiter-Glo assay kit). The data set is classed as cell-based. The method, then: The tumor tissue to be transplanted to the mouse was prepared by culturing an ovarian cancer cell line (OVCAR3-Luc cells, transferred from another facility) into which the luciferase gene had been introduced, and used. The OVCAR3-Luc cells were cultured in a culture medium containing a RPMI medium 1640 (11875-093: manufactured by Gibco) containing 10% inactivated FBS (manufactured by Corning) at 37° C. and under a 5 vol % carbon dioxide environment. Passaging was carried out every 2-3 days.
(§1) The cytocidal activity of each peptide was evaluated by measuring the ATP amount in the cells treated with each peptide using CellTiter-Glo (registered trademark) assay kit (manufactured by Promega).
(§2) Specifically, first, the A431-CNGB3-myc cells or the OVCAR3-Luc cells after 3 to 4 passages were seeded in a 96-well plate (manufactured by Corning/Costar, Lot No. 00515003) so as to adjust the cell concentration to 1×10^4 cells/well. […] Luminescence (RLU: RELATIVE LIGHT UNITS) of each reaction solution after standing at room temperature was measured using a Synergy H1 hybrid multimode microplate reader (manufactured by BioTek). The luminescence intensity of the reaction solution is an index of the ATP amount. The smaller the luminescence intensity of the reaction solution, the smaller the ATP amount and the stronger the cytocidal activity of the administered peptide. […]
In general terms: Cellular ATP, detected with luciferase, serves as a proxy for viable cell number.

For data set [2], the system named is A431-CNGB3-myc cells. Described as above. The data set is classed as cell-based, human. The settings on record: peptide 2.34 to 300.0 μM, 24 hours, FIG. 1. On the procedure:
A transformed cell (A431-CNGB3-myc cell) obtained by introducing a gene encoding human CNGB3, in which an myc tag was fused in a C-terminal, into an A431 cell (human epithelial-like cell cancer-derived cell strain) and forcibly expressing thereof was prepared as an endometriosis model cell.
as §1
as §2, with “peptide. All trials were measured in triplicate, and the average value thereof was taken as the emission intensity (RLU) of each reaction solution.” for “peptide.”

Data set [3] in a line: Body weight of endometriosis model mice after single intraperitoneal administration. The data set is classed as in vivo, mouse. The settings on record: for Body Weight, 7th day: 7 days after cell transplantation, before peptide administration (baseline); for Body Weight, 7th day / Body Weight, 8th day: mean ± standard error. On the procedure: Seven days after the A431-CNGB3-myc cells were intraperitoneally transplanted, 0.5 mL of physiological saline solution warmed to 37° C. was intraperitoneally administered to an endometriosis model mouse under isoflurane anesthesia, followed by performing massage. Immediately after the massage, a solution of the K14D-H5D peptide dissolved in physiological saline was intraperitoneally administered. The K14D-H5D peptide was administered at a dose of 0 mg/10 mL/kg (control) (n=7), 5 mg/10 mL/kg (n=8), or 10 mg/10 mL/kg (n=8) per mouse body weight
Each mouse was weighed 7 days after the A431-CNGB3-myc cells were intraperitoneally transplanted, before K14D-H5D peptide administration and before exsanguination.
The mouse group in which the dose of the K14D-H5D peptide per mouse body weight was 0 mg/10 mL/kg was represented as G1 group, the mouse group in which the dose of the K14D-H5D peptide per mouse body weight was 5 mg/10 mL/kg was represented as G2 group, and the mouse group in which the dose of the K14D-H5D peptide per mouse body weight was 10 mg/10 mL/kg was represented as G3 group. […] In the Table, “7th day” in the “Body Weight” column is the body weight 7 days after the intraperitoneal transplantation of the A431-CNGB3-myc cells, which was before the administration of the K14D-H5D peptide, and “8th day” is the body weight 24 hours after the administration of the K14D-H5D peptide.

With “KLAKLAK-HLAHLAH-HLAHLAH-HLAH ([dK][dL][dA][dK][dL][dA][dK][dH][dL][dA][dH][dL][dA][dH][dH][dL][dA][dH][dL][dA][dH][dH][dL][dA][dH]) [Peptide K7D-H18D, reference compound]”, the “relative ATP amount (%) / cytocidal activity” value in data set [1] (OVCAR3-Luc cells, peptide 2.34 to 300.0 μM, 24 hours, FIG. 2) is reported as “decreased in a dose-dependent manner”; in data set [2], “decreased in a dose-dependent manner”.
As for “KLAKLAK-KLAKLAK-HLAHL-VRRADNRPG (KLAKLAKKLAKLAKHLAHLVRRADNRPG; not fully specified (some residues); printed as KLAKLAK-KLAKLAK-HLAHL-VRRADNRPG; also: D-amino acids, positions not given here) [Peptide K14D-H5D-Z13]”, the “cytocidal activity compared with the K14D-H5D peptide” value in data set [1] (OVCAR3-Luc cells having no CNGB3 on the cell surface, FIG. 3) is listed as “the same cytocidal activity”.
With `CC(C)C[C@@H](NC(=O)[C@@H](Cc1c[nH]cn1)NC(=O)[C@@H](C)NC(=O)[C@@H](CC(C)C)NC(=O)[C@@H](Cc1c[nH]cn1)NC(=O)[C@@H](CCCCN)NC(=O)[C@@H](C)NC(=O)[C@@H](CC(C)C)NC(=O)[C@@H](CCCCN)NC(=O)[C@@H](C)NC(=O)[C@@H](CC(C)C)NC(=O)[C@@H](CCCCN)NC(=O)[C@@H](CCCCN)NC(=O)[C@@H](C)NC(=O)[C@@H](CC(C)C)NC(=O)[C@@H](CCCCN)NC(=O)[C@@H](C)NC(=O)[C@@H](CC(C)C)NC(=O)[C@H](N)CCCCN)C(=O)O` [Peptide K14D-H5D, KLAKLAK-KLAKLAK-HLAHL], in data set [3] (5 or 10 mg/10 mL/kg single i.p., 24 hours after administration, depending on the dose), the “change in body weight” value is “slight decrease”. Moreover, the “Body Weight, 7th day” value turned out to be 20.1 ± 0.4 g in data set [3] (G2 group, 5 mg/10 mL/kg i.p.) and 20.0 ± 0.4 g in data set [3] (G3 group, 10 mg/10 mL/kg i.p.). Besides, the “Body Weight, 8th day” value was found to be 19.2 ± 0.5 g in data set [3] (G2 group, 5 mg/10 mL/kg single i.p., 24 hours after administration) and 17.5 ± 0.3 g in data set [3] (G3 group, 10 mg/10 mL/kg single i.p., 24 hours after administration).
